Source: patent US20170081368A1, “PEPTIDES AS OXYTOCIN AGONISTS” (Hoffmann-La Roche Inc., priority 2014, published 2017)
pEC50: −log10 of the molar value. Where a SMILES comes first, the peptide text is derived from it.

Columns and labels:
[1] = target: T1, human Oxytocin (OTR) receptor (Homo sapiens, UniProt P30559); test: Calcium flux assay (FLIPR) in CHO cells expressing human OTR; assay type: cell-based; settings: for Emax: CHO, read-out: hOT efficacy; for Emax / hOT efficacy: maximum response normalized to endogenous full agonist = 100%; for pEC50: agonist mode, CHO cells, calcium flux FLIPR, read-out: hOT EC50
T1 construct: expressed in transfected cells
T1 sequence (P30559 1-389): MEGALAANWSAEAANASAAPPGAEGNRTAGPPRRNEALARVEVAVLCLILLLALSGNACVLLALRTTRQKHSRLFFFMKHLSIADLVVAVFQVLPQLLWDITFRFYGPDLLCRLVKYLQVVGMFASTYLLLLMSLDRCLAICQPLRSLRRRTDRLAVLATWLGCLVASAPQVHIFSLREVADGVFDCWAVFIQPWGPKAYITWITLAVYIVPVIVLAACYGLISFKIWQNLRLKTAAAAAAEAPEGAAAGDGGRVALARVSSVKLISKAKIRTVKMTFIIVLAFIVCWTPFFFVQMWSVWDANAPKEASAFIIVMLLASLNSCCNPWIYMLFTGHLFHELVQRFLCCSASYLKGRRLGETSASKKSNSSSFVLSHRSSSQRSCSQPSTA
Source text: (§1) Chines Hamster Ovary (CHO) cells were transfected with expression plasmids encoding either the human Vla, the human Oxytocin (OTR) or the humanV2 receptor, the later in combination with the chimeric Gqs5 G protein to redirect the signal to Calcium flux. Stable cells were cloned by limiting dilution to yield monoclonal cell lines expressing either human Vla, human V2+Gqs5 or human OTR receptors and selected based on functional responses detected on a fluorometric imaging plate reader (FLIPR) detecting Calcium flux in the cell after receptor activation. The stable cell lines were grown in F-12 K Nutrient Mixture (Kaighns Modification), containing 10% foetal bovine serum (FBS), 1% penicillin-streptomycin, 1% L-glutamate, 200 ug/ml Geneticin at 37° C. in a 10% CO2 incubator at 95% humidity.
(§2) Calcium Flux Assays Using Fluorescent Imaging (Fluorometric Imaging Plate Reader, FLIPR)
(§3) On the afternoon before the assay, cells were plated at a density of 50,000 cells/well into black 96 well plates with clear bottoms to allow cell inspection and fluorescence measurements from the bottom of each well. The density of cells was sufficient to yield a confluent monolayer the next day. Hanks balanced salt solution, without phenol red, containing 20 mM HEPES (pH 7.3) and 2.5 mM probenecid (assay buffer) was prepared fresh for each experiment. Compound dilutions were made using a Beckman Biomek 2000 laboratory automation workstation, in assay buffer containing 1% DMSO. The dye-loading buffer consisted of a final concentration of 2 μM Fluo-4-AM (dissolved in DMSO and pluronic acid) in assay buffer. The existing culture media was removed from the wells and 100 μl of the dye-loading buffer was added to each well and incubated for approximately 60 min at 37° C. in a 5% CO2 incubator at 95% humidity. Once dye-loaded, the cells were washed thoroughly on an Embla cell washer with the assay buffer to remove any unincorporated dye. Exactly 100 μl assay buffer was left in each well.
(§4) Each 96 well plate containing dye-loaded cells was placed into the FLIPR machine and the laser intensity set to a suitable level to detect low basal fluorescence. To test compounds as agonists, 25 μl diluted compound was added to the plate 10 seconds into the fluorescent measurements and fluorescent response was recorded for 5 minutes. The fluorescence data was normalized to the endogenous full agonist dose-response set at 100% for the maximum response and 0% for the minimum. Each agonist concentration-response curve was constructed using a four parameter logistic equation with Microsoft Excel XLFit as follows: Y=Minimum+((Maximum−Minimum)/(1+10^(LogEC50−X)nH)), where y is the % normalized fluorescence, minimum is the minimum y, maximum is the maximum y, log EC50 is the log10 concentration which produces 50% of the maximum induced fluorescence, x is the log10 of the concentration of the agonist compound and H is the slope of the curve (the Hill Coefficient). The maximum value gives the efficacy of the agonist test compound in percentage. The concentration of agonist that produced a half-maximal response is represented by the EC50 value, the logarithm of which yielded the pEC50 value.

human V2 receptor = target: T2, human V2 receptor (Homo sapiens, UniProt P30518); test: Calcium flux assay (FLIPR) in CHO cells expressing human V2+Gqs5; assay type: cell-based; settings: for Emax: CHO, maximum response normalized to endogenous full agonist = 100%, read-out: hV2 efficacy; for pEC50: agonist mode, CHO cells with chimeric Gqs5, calcium flux FLIPR, read-out: hV2 EC50
T2 construct: expressed in transfected cells
T2 sequence (P30518 whole entry): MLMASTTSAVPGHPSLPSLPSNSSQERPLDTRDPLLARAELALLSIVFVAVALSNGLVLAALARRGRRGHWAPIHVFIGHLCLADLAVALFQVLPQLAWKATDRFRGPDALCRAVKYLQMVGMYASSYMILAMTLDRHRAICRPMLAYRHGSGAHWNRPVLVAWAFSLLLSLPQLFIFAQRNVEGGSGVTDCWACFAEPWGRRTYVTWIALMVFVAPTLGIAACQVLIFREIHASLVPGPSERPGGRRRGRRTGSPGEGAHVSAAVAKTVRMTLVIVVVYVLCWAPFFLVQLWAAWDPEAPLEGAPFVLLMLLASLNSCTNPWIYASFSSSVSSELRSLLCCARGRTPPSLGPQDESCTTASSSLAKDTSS
Source text: as §1, §2, §3, §4

| Emax [1] | pEC50 [1] | hOT efficacy [1] | Emax (human V2 receptor) | pEC50 (human V2 receptor) | SMILES |
| --- | --- | --- | --- | --- | --- |
| 105% | 8.66 |  |  |  | CC[C@H](C)[C@@H]1NC(=O)[C@H](Cc2ccc(O)cc2)NC(=O)CCS(=O)(=O)CC[C@@H](C(=O)N(C)CC(=O)N[C@@H](Cc2ccc(O)cc2)C(=O)NCC(N)=O)NC(=O)[C@H](CC(N)=O)NC(=O)[C@H](CCC(N)=O)NC1=O [Example 17] (HELM PEPTIDE1{Y.I.Q.N.[O=C([C@H](CCS(=O)(=O)CCC(=O)[*:3])N[*:1])[*:2]].[Sar].Y.G.[am]}$PEPTIDE1,PEPTIDE1,1:R1-5:R3$$$V2.0) |
| 102% |  |  |  |  | CC[C@H](C)[C@@H]1NC(=O)[C@H](Cc2ccc(O)cc2)NC(=O)CCS(=O)(=O)CC[C@@H](C(=O)N(C)CC(=O)N[C@@H](CO)C(=O)NCC(N)=O)NC(=O)[C@H](CC(N)=O)NC(=O)[C@H](CCC(N)=O)NC1=O [Example 18] (HELM PEPTIDE1{Y.I.Q.N.[O=C([C@H](CCS(=O)(=O)CCC(=O)[*:3])N[*:1])[*:2]].[Sar].S.G.[am]}$PEPTIDE1,PEPTIDE1,1:R1-5:R3$$$V2.0; C-terminus assumed; bridges inferred) |
| 110% | 8.85 |  |  |  | CC[C@H](C)[C@@H]1NC(=O)[C@H](Cc2ccc(O)cc2)NC(=O)CCS(=O)(=O)CC[C@@H](C(=O)N(C)CC(=O)N[C@@H](C)C(=O)NCC(N)=O)NC(=O)[C@H](CC(N)=O)NC(=O)[C@H](CCC(N)=O)NC1=O [Example 19] (HELM PEPTIDE1{Y.I.Q.N.[O=C([C@H](CCS(=O)(=O)CCC(=O)[*:3])N[*:1])[*:2]].[Sar].A.G.[am]}$PEPTIDE1,PEPTIDE1,1:R1-5:R3$$$V2.0) |
| 113% | 7.89 |  |  |  | CC[C@H](C)[C@@H]1NC(=O)[C@H](Cc2ccc(O)cc2)NC(=O)CCS(=O)(=O)CC[C@@H](C(=O)N(C)CC(=O)N[C@@H](CN)C(=O)NCC(N)=O)NC(=O)[C@H](CC(N)=O)NC(=O)[C@H](CCC(N)=O)NC1=O [Example 20] (HELM PEPTIDE1{Y.I.Q.N.[O=C([C@H](CCS(=O)(=O)CCC(=O)[*:3])N[*:1])[*:2]].[Sar].[NC[C@H](N[*:1])C(=O)[*:2]].G.[am]}$PEPTIDE1,PEPTIDE1,1:R1-5:R3$$$V2.0) |
| 117% | 9.40 |  |  |  | CC[C@H](C)[C@@H]1NC(=O)[C@H](Cc2ccc(O)cc2)NC(=O)CCS(=O)(=O)CC[C@@H](C(=O)N(C)CC(=O)N[C@H](C(=O)NCC(N)=O)C2CCCCC2)NC(=O)[C@H](CC(N)=O)NC(=O)[C@H](CCC(N)=O)NC1=O [Example 21] (HELM PEPTIDE1{Y.I.Q.N.[O=C([C@H](CCS(=O)(=O)CCC(=O)[*:3])N[*:1])[*:2]].[Sar].[O=C([C@@H](N[*:1])C1CCCCC1)[*:2]].G.[am]}$PEPTIDE1,PEPTIDE1,1:R1-5:R3$$$V2.0) |
| 109% | 8.60 |  |  |  | CC[C@H](C)[C@@H]1NC(=O)[C@H](Cc2ccc(O)cc2)NC(=O)CCS(=O)(=O)CC[C@@H](C(=O)N(C)CC(=O)N[C@@](C)(CC(C)C)C(=O)NCC(N)=O)NC(=O)[C@H](CC(N)=O)NC(=O)[C@H](CCC(N)=O)NC1=O [Example 22] (HELM PEPTIDE1{Y.I.Q.N.[O=C([C@H](CCS(=O)(=O)CCC(=O)[*:3])N[*:1])[*:2]].[Sar].[CC(C)C[C@](C)(N[*:1])C(=O)[*:2]].G.[am]}$PEPTIDE1,PEPTIDE1,1:R1-5:R3$$$V2.0) |
|  | 7.64 | 123% |  |  | CCC[C@H](NC(=O)[C@@H]1CCS(=O)(=O)CCC(=O)N[C@@H](Cc2ccc(O)cc2)C(=O)N[C@@H]([C@@H](C)CC)C(=O)N[C@@H](CCC(N)=O)C(=O)N[C@@H](CC(N)=O)C(=O)N1)C(=O)N[C@@H](CC(C)C)C(=O)NCC(N)=O [Example 23] (HELM PEPTIDE1{Y.I.Q.N.[O=C([C@H](CCS(=O)(=O)CCC(=O)[*:3])N[*:1])[*:2]].[Nva].L.G.[am]}$PEPTIDE1,PEPTIDE1,1:R1-5:R3$$$V2.0) |
|  | 7.40 | 114% |  |  | CCCC[C@H](NC(=O)[C@@H]1CCS(=O)(=O)CCC(=O)N[C@@H](Cc2ccc(O)cc2)C(=O)N[C@@H]([C@@H](C)CC)C(=O)N[C@@H](CCC(N)=O)C(=O)N[C@@H](CC(N)=O)C(=O)N1)C(=O)N[C@@H](CC(C)C)C(=O)NCC(N)=O [Example 24] (HELM PEPTIDE1{Y.I.Q.N.[O=C([C@H](CCS(=O)(=O)CCC(=O)[*:3])N[*:1])[*:2]].[Nle].L.G.[am]}$PEPTIDE1,PEPTIDE1,1:R1-5:R3$$$V2.0) |
|  | 7.80 | 137% |  |  | CC[C@H](C)[C@@H]1NC(=O)[C@H](Cc2ccc(O)cc2)NC(=O)CCS(=O)(=O)CC[C@@H](C(=O)N[C@@H](CO)C(=O)N[C@@H](CC(C)C)C(=O)NCC(N)=O)NC(=O)[C@H](CC(N)=O)NC(=O)[C@H](CCC(N)=O)NC1=O [Example 25] (HELM PEPTIDE1{Y.I.Q.N.[O=C([C@H](CCS(=O)(=O)CCC(=O)[*:3])N[*:1])[*:2]].S.L.G.[am]}$PEPTIDE1,PEPTIDE1,1:R1-5:R3$$$V2.0) |
| 140% | 8.15 |  |  |  | CC[C@H](C)[C@@H]1NC(=O)[C@H](Cc2ccc(O)cc2)NC(=O)CCS(=O)(=O)CC[C@@H](C(=O)N[C@@H](CCO)C(=O)N[C@@H](CC(C)C)C(=O)NCC(N)=O)NC(=O)[C@H](CC(N)=O)NC(=O)[C@H](CCC(N)=O)NC1=O [Example 26] (HELM PEPTIDE1{Y.I.Q.N.[O=C([C@H](CCS(=O)(=O)CCC(=O)[*:3])N[*:1])[*:2]].[O=C([C@H](CCO)N[*:1])[*:2]].L.G.[am]}$PEPTIDE1,PEPTIDE1,1:R1-5:R3$$$V2.0) |
| 105% | 9.30 |  | 143% | 5.48 | CC[C@H](C)[C@@H]1NC(=O)[C@H](Cc2ccc(O)cc2)NC(=O)CCS(=O)(=O)CC[C@@H](C(=O)N(CC(=O)N[C@H](C(=O)NCC(N)=O)C(C)C)C2CC2)NC(=O)[C@H](CC(N)=O)NC(=O)[C@H](CCC(N)=O)NC1=O [Example 29] (HELM PEPTIDE1{Y.I.Q.N.[O=C([C@H](CCS(=O)(=O)CCC(=O)[*:3])N[*:1])[*:2]].[O=C(CN(C1CC1)[*:1])[*:2]].V.G.[am]}$PEPTIDE1,PEPTIDE1,1:R1-5:R3$$$V2.0) |
|  | 9.00 | 97% | 131% | 5.20 | CC[C@H](C)[C@@H]1NC(=O)[C@H](Cc2ccc(O)cc2)NC(=O)CCS(=O)(=O)CC[C@@H](C(=O)N(CC(=O)NC(C)(C)C(=O)NCC(N)=O)C2CC2)NC(=O)[C@H](CC(N)=O)NC(=O)[C@H](CCC(N)=O)NC1=O [Example 30] (HELM PEPTIDE1{Y.I.Q.N.[O=C([C@H](CCS(=O)(=O)CCC(=O)[*:3])N[*:1])[*:2]].[O=C(CN(C1CC1)[*:1])[*:2]].[Aib].G.[am]}$PEPTIDE1,PEPTIDE1,1:R1-5:R3$$$V2.0) |
| 115% | 9.40 |  | 150% | 5.53 | CC[C@H](C)[C@H](NC(=O)CN(C(=O)[C@@H]1CCS(=O)(=O)CCC(=O)N[C@@H](Cc2ccc(O)cc2)C(=O)N[C@@H]([C@@H](C)CC)C(=O)N[C@@H](CCC(N)=O)C(=O)N[C@@H](CC(N)=O)C(=O)N1)C1CC1)C(=O)NCC(N)=O [Example 31] (HELM PEPTIDE1{Y.I.Q.N.[O=C([C@H](CCS(=O)(=O)CCC(=O)[*:3])N[*:1])[*:2]].[O=C(CN(C1CC1)[*:1])[*:2]].I.G.[am]}$PEPTIDE1,PEPTIDE1,1:R1-5:R3$$$V2.0) |
